{
  "source": "paper PMC7044277",
  "about": "(Nature Communications, 2020)",
  "format_in_all_cases": "cell-based",
  "key": {"DRD3 F1063.28A": {"target": "DRD3 F1063.28A (Homo sapiens, UniProt P35462, F106A)", "sequence (P35462 whole entry F106A)": "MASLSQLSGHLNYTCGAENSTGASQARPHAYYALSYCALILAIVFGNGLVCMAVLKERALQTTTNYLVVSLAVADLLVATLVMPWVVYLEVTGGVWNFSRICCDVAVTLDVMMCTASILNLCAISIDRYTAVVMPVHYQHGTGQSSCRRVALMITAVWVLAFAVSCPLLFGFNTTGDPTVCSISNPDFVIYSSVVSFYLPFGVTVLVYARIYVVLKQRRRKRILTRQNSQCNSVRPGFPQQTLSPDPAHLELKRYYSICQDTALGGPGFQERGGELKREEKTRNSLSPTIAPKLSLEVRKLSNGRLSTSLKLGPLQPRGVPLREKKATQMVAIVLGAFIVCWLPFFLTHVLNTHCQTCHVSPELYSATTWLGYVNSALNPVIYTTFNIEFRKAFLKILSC", "assay": "cell-based"}, "320 non-olfactory GPCRs [1]": {"target": "320 non-olfactory GPCRs (Homo sapiens, UniProt P35414)", "sequence (P35414 whole entry)": "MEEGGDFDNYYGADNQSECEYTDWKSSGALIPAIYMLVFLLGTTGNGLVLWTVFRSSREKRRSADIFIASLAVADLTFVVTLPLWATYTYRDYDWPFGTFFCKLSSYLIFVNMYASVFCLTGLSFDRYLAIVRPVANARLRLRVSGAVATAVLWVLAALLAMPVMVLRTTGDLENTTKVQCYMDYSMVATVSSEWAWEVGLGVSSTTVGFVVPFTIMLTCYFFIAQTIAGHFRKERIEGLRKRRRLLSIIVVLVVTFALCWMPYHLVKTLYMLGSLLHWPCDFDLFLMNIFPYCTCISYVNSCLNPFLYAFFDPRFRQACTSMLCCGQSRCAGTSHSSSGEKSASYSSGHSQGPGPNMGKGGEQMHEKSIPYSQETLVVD"}, "320 non-olfactory GPCRs [2]": {"target": "T1, 320 non-olfactory GPCRs (Homo sapiens, UniProt Q15761)", "T1 construct": "expressed in transfected cells; host or cells: HTLA cells", "T1 sequence (Q15761 whole entry)": "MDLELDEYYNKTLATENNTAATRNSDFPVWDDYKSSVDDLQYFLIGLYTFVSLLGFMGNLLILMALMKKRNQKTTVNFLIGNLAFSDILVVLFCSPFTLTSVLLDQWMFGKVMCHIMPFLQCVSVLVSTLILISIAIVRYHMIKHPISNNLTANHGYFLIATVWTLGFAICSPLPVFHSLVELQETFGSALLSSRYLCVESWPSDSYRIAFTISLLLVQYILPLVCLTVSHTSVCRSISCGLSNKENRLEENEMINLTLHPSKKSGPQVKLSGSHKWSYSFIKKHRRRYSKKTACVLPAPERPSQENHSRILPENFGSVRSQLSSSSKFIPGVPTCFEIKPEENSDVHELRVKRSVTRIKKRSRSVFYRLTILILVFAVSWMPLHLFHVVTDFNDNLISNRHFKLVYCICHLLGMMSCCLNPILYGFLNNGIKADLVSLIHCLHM", "conditions": "receptor NPY5R; replicate values, Fig_4g"}, "320 non-olfactory GPCRs [3]": {"target": "T2, 320 non-olfactory GPCRs (Homo sapiens, UniProt Q86SQ6)", "T2 construct": "expressed in transfected cells; host or cells: HTLA cells", "T2 sequence (Q86SQ6 whole entry)": "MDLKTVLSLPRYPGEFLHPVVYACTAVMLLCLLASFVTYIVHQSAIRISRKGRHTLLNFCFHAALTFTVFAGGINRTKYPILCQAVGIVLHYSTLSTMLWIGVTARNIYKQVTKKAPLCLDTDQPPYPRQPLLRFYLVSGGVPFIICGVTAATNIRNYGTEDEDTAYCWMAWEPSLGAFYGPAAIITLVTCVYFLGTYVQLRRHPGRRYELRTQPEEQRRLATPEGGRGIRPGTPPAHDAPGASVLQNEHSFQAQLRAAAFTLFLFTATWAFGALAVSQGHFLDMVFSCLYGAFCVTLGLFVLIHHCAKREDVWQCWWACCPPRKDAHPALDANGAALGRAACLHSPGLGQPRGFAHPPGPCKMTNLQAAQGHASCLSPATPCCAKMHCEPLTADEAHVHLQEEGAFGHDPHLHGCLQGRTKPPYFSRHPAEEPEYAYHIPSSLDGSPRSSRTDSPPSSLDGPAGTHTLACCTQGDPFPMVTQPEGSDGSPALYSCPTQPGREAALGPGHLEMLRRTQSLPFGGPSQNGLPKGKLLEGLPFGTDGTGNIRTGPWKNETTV"}},
  "note": "Several values for one entry are separate records, joined by “and”; a condition that tells them apart may be missing. Equal values may be shown once.",
  "data": [
    {"molecule": "CCOc1cccc2cc(C(C)NCC3(O)CCCCC3)oc12", "note": "(stereo not shown) [O4LE6];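 as to Fold of Basal: compound tested at 1 µM final concentration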;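 as to GPCRome agonism screen response: fold over basal response of each receptor without drug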", "values": [
      {"measurement": "EC50", "setting": "DRD3 F1063.28A", "value": "> 10", "unit": "µM"},
      {"measurement": "Fold of Basal", "setting": "320 non-olfactory GPCRs [1]", "value": "1.057 and 1.1216 and 0.9447 and 1.032"},
      {"measurement": "GPCRome agonism screen response", "setting": "320 non-olfactory GPCRs [2]", "value": "1.549 and 1.454 and 1.619 and 1.735"},
      {"measurement": "Fold of Basal", "setting": "320 non-olfactory GPCRs [3]", "value": "0.9894 and 1.559 and 1.433 and 1.372"}
    ]}
  ]
}
